Experimental data taken from patent US10039779B2, “Combination formulation of two antiviral compounds” (priority 2013, dated 2018).

Legend:
[1] = Pharmacokinetics of sofosbuvir and ledipasvir alone or in combination; assay type: in vivo; design: AUC(0-inf): concentration or dose not given beside the values; settings: for AUC(0-inf): plasma
[2] = Ledipasvir single-dose PK by concomitant food intake status; assay type: in vivo; settings: for CL/F: Ledipasvir 30 mg single dose, N = 8, mean
[3] = Compatibility/stability of sofosbuvir and ledipasvir:copovidone solid dispersion blend; assay type: physicochemical; settings: for Strength / Total Impurity Content: blend pellets, open glass vials
Method: The compatibility of sofosbuvir anhydrous crystalline drug substance was evaluated with the ledipasvir:copovidone solid dispersion. A blend of the sofosbuvir and ledipasvir:copovidone (1:1) solid dispersion was prepared at a ratio representative of the final 400 mg sofosbuvir/90 mg ledipasvir tablets. […]

[4] = pH-solubility profile and solubility in simulated intestinal media; assay type: physicochemical
Method: Excess solid ledipasvir was added to a range of pH-adjusted aqueous solutions (titrated with HCl or NaOH) and stirred for 48 hours at room temperature. The suspensions were then filtered through regenerated cellulose syringe filters. The pH value of the supernatant was measured, and the supernatant was diluted as appropriate with 50:50 H2O+0.1% TFA:ACN and assayed for ledipasvir content by the HPLC-UV method.
Solubility of ledipasvir amorphous free base was assessed in three types of simulated intestinal fluids at pH 6.5 or pH 5.0; and simulated intestinal bile salt and lecithin mixture (SIBLM), pH 6.4. Excess solid ledipasvir was added to the respective SIFs and stirred for 48 hours at room temperature. The resulting suspensions were then filtered through regenerated cellulose syringe filters. The supernatant was diluted as appropriate with 50:50 H2O+0.1% TFA:ACN and assayed for ledipasvir content by the HPLC-UV method.

[5] = tested on: HCV; experiment: Dose selection: antiviral response and Emax PK/PD modeling; assay type: in vivo, Hepatitis C virus; settings: for breakthrough (BT) rate: in combination with other therapeutic agents
Method: The sofosbuvir dose selected for the tablet formulation is 400 mg once daily. Support for the 400 mg sofosbuvir dose can be derived from Emax PK/PD modeling with early virological and human exposure data which also supports the selection of a 400 mg sofosbuvir dose over others tested.
The mean sofosbuvir major metabolite AUCtau for the 400 mg sofosbuvir dose is associated with approximately 77% of the maximal HCV RNA change from baseline achievable as determined by this model, a value which is on the cusp of the plateau of the exposure-response sigmoidal curve. […] Therefore, given that sofosbuvir exposure with 200 mg tablets appears dose-proportional with single doses up to 1200 mg, doses below 400 mg are expected to yield considerable reductions in the magnitude of HCV RNA change from baseline.
The sofosbuvir dose of 400 mg once daily was associated with higher SVR rates in genotype 1 HCV infected patients as compared to the 200 mg once daily dose when given in conjunction with additional HCV therapeutics for 24 weeks. Safety and tolerability appeared similar across both dose levels. In addition, when sofosbuvir 400 mg once daily plus other HCV therapeutics were given to genotype 2 or 3 HCV infected patients, 100% SVR24 was observed.
The maximum median HCV RNA log 10 reduction was 3 or greater for all cohorts dosed with ≥3 mg of ledipasvir. […] Therefore, 30 mg and 90 mg of ledipasvir were selected as the dose for the formulations described herein.
Therefore, the 90 mg dose of ledipasvir may confer a greater antiviral coverage that prevents viral breakthrough.

[6] = pH-solubility profile and solubility in simulated intestinal media; assay type: physicochemical; remark: listed apart in the source
[7] = PK of Sofosbuvir/Ledipasvir tablets fasted or with meals; settings: for AUC(0-inf) / AUC(0-t) / Cmax: plasma, po, plasma analyte, n = 29, mean (% CV); for AUC(0-inf): AUCinf; for AUC(0-t): AUClast
[8] = Sofosbuvir + Ledipasvir vs single agent alone
[9] = po, plasma analyte, Ledipasvir alone, n = 17, mean (% CV)
[10] = nonlinear least-square regression fit of pH-solubility profile
[11] = Sofosbuvir/Ledipasvir Tablet, Fasted
[12] = Sofosbuvir/Ledipasvir Tablet, High-Calorie/High-Fat Meal
[13] = Sofosbuvir/Ledipasvir Tablet, Moderate-Fat Meal

Structure (SMILES): COC(=O)N[C@H](C(=O)N1CC2(CC2)C[C@H]1c1ncc(-c2ccc3c(c2)C(F)(F)c2cc(-c4ccc5nc([C@@H]6[C@H]7CC[C@H](C7)N6C(=O)[C@@H](NC(=O)OC)C(C)C)[nH]c5c4)ccc2-3)[nH]1)C(C)C [Ledipasvir, (1-{3-[6-(9,9-difluoro-7-{2-[5-(2-methoxycarbonylamino-3-methyl-butyryl)-5-aza-spiro[2.4]hept-6-yl]-3H-imidazol-4-yl}-9H-fluoren-2-yl)-1H-benzoimidazol-2-yl]-2-aza-bicyclo[2.2.1]heptane-2-carbonyl}-2-methyl-propyl)-carbamic acid methyl ester]
- % GMR (90% CI) of AUCinf [1, 8]: 95.7 (92.1, 99.5) %
- % GMR (90% CI) of AUClast [1, 8]: 96.5 (89.9, 104) %
- % GMR (90% CI) of Cmax [1, 8]: 95.5 (91.9, 99.1) %
- AUC(0-inf) [1, 9]: 11900 ng·h/mL
- AUC(0-inf) ([1]; po, plasma analyte, Sofosbuvir + Ledipasvir, n = 17, mean (% CV)): 11400 ng·h/mL
- Cmax [1, 9]: 375 ng/mL
- AUCinf GLSM Ratio (Fed/Fasted) ([2]; Ledipasvir 30 mg): 55.55%
- AUClast GLSM Ratio (Fed/Fasted) ([2]; Ledipasvir 30 mg): 56.71%
- Cmax GLSM Ratio (Fed/Fasted) ([2]; Ledipasvir 30 mg): 54.90%
- CL/F ([2]; fasted): 17,034.5 mL/h
- CL/F ([2]; fed (high-fat meal)): 26,917.9 mL/h
- decrease each in mean Cmax, AUClast, and AUCinf ([2]; high-fat meal vs fasted, 30 mg): approximately 45%
- decrease in exposure with a high-fat meal relative to fasted state ([2]; ledipasvir alone in a conventional formulation): roughly 2 fold
- degradation in blend with the other active ([3]; 40° C./75% RH and 60° C./ambient humidity, two and four weeks): no degradation was observed
- Strength ([3]; 45° C./75% RH, 0 weeks): 98.8%
- Total Impurity Content ([3]; 45° C./75% RH, 0 weeks): 0.0%
- Strength ([3]; 45° C./75% RH, 2 weeks): 96.9%
- Total Impurity Content ([3]; 45° C./75% RH, 2 weeks): 0.0%
- Strength ([3]; 45° C./75% RH, 4 weeks): 97.1%
- Total Impurity Content ([3]; 45° C./75% RH, 4 weeks): 0.0%
- Strength ([3]; 60° C., 0 weeks): 98.8%
- Total Impurity Content ([3]; 60° C., 0 weeks): 0.0%
- Strength ([3]; 60° C., 1 week): 99.2%
- Total Impurity Content ([3]; 60° C., 1 week): 0.0%
- Strength ([3]; 60° C., 2 weeks): 99.6%
- Total Impurity Content ([3]; 60° C., 2 weeks): 0.0%
- Strength ([3]; 60° C., 4 weeks): 98.9%
- Total Impurity Content ([3]; 60° C., 4 weeks): 0.0%
- BCS classification [4]: BCS Class 2
- pKa1 [4, 10]: 5.0
- pKa2 [4, 10]: 4.0
- share of maximal antiviral response (Emax PK/PD model) ([5]; 30 mg dose, genotype 1a HCV infected patients): > 95%
- breakthrough (BT) rate ([5]; 30 mg, 11/33): 33%
- breakthrough (BT) rate ([5]; 90 mg, 9/74): 12%
- permeability [6]: high permeability
- % GMR (90% CI) [Moderate-Fat/Fasted] of AUCinf ([7]; Sofosbuvir/Ledipasvir Tablet): 115 (99.4, 134) %
- % GMR (90% CI) [Moderate-Fat/Fasted] of AUClast ([7]; Sofosbuvir/Ledipasvir Tablet): 114 (98.0, 133) %
- % GMR (90% CI) [Moderate-Fat/Fasted] of Cmax ([7]; Sofosbuvir/Ledipasvir Tablet): 109 (93.5, 126) %
- GMR (90% CI) [High-Fat/Fasted] of AUCinf ([7]; Sofosbuvir/Ledipasvir Tablet): 103 (88.5, 119) %
- GMR (90% CI) [High-Fat/Fasted] of AUClast ([7]; Sofosbuvir/Ledipasvir Tablet): 104 (88.8, 121) %
- GMR (90% CI) [High-Fat/Fasted] of Cmax ([7]; Sofosbuvir/Ledipasvir Tablet): 88.2 (75.8, 103) %
- AUC(0-inf) [7, 11]: 10600 ng·h/mL
- AUC(0-inf) [7, 12]: 9220 ng·h/mL
- AUC(0-inf) [7, 13]: 10600 ng·h/mL
- AUC(0-t) [7, 11]: 8600 ng·h/mL
- AUC(0-t) [7, 12]: 7550 ng·h/mL
- AUC(0-t) [7, 13]: 8650 ng·h/mL
- Cmax [7, 11]: 324 ng/mL
- Cmax [7, 12]: 255 ng/mL
- Cmax [7, 13]: 319 ng/mL
- effect of food on pharmacokinetics ([7]; sofosbuvir/ledipasvir composition, fed vs fasted): does not appear to be altered by food
